# Test system: CK19 protein release by viable epithelial cells (cell lines)
# Assay: CK19-EPISPOT assay with cycloheximide in cell-cultures
# Assay type: cell-based, human
# Conditions: cell lines incubated with 50 μg/mL cycloheximide during the incubation step of the EPISPOT assay
# Procedure: EPISPOT assays. Immobilon-P membrane 96-well plates (MAIPN450, Millipore Corporation, Bedford, Mass.) were coated overnight at 4° C. with the anti-CK19 mAb Ks19.1 (6 μg/mL) (Progen Biotechnik GMBH, Heidelberg, […].). Unbound mAb were removed by washing three times with PBS. The plates were then blocked with PBS supplemented with 5% FCS (Sigma, Chemical Co., Saint Louis, Mo.) for 1 h at room temperature and washed three times with PBS. To block protein synthesis, cell lines were incubated with 50 μg/mL of cycloheximide during the EPISPOT assay. Subsequently, viable cells were counted in a Kovac slide with trypan blue dye exclusion staining and finally plated in three replicate wells at different concentrations (1×10^5, 1×10^4, 1×10^3, 1×10^2, 10 and 1 cells). In addition, 5×10^4 to 1×10^5 of enriched CD45^− cells (i) from blood and bone marrow of colon and breast cancer patients, respectively, (ii) from the milk of healthy lactating women (normal primary mammary cells) or (iii) from normal and tumor colon tissues were seeded in different wells of the plates. […] Immunospots were counted by video camera imaging and computer assisted analysis (KS ELISPOT, Carl Zeiss Vision, Halbermoos, Germany). […]
structure (smiles),measurement,value
C[C@@H]1C[C@@H]([C@H](O)CC2CC(=O)NC(=O)C2)C(=O)[C@@H](C)C1 [cycloheximide],size and number of CK19 immunospots (CK19-releasing cells),decrease in the size and the number of spots
